Data taken from paper PMC10342010, “Djakonoviosides A, A1, A2, B1–B4 — Triterpene Monosulfated Tetra- and Pentaosides from the Sea Cucumber Cucumaria djakonovi: The First Finding of a Hemiketal Fragment in the Aglycones; Activity against Human Breast Cancer Cell Lines” (International Journal of Molecular Sciences, 2023).
Like-named read-outs stand apart in the source and are kept apart here.

Legend:
HEK293 cells = assay: Cytotoxic activity (MTT assay); type: cell-based, human; conditions: HEK293, MTT, 24 h; read-out: Cytotoxicity, IC50 HEK293
Procedure: (§1) After incubation, the glycosides with medium were replaced by 100 μL of fresh medium. Then, 10 μL of MTT (3-(4,5-dimethylthiazol-2-yl)-2,5-diphenyltetrazolium bromide) (Sigma-Aldrich, St. Louis, MO, USA) stock solution (5 mg/mL) was added to each well, followed by incubation of the microplate for 4 h. After this procedure, 100 μL of SDS-HCl solution (1 g SDS/10 mL d-H2O/17 μ[…] HCl) was added to each well and incubated for 18 h. The absorbance of the converted dye formazan was determined with a Multiskan FC microplate photometer (Thermo Fisher Scientific, Waltham, MA, USA) at 570 nm.

MCF-7 cells = assay: Cytotoxic activity (MTT assay); type: cell-based, human; conditions: MCF-7, MTT, 24 h; read-out: Cytotoxicity, IC50 MCF-7
Procedure: as §1

HL-60 cells = assay: Cytotoxic activity (MTS assay); type: cell-based, human; conditions: HL-60, MTS, 24 h; read-out: Cytotoxicity, IC50 HL-60
Procedure: Then, the cells were incubated with 10 µL MTS ([3-(4,5-dimethylthiazol-2-yl)-5-(3-carboxymethoxyphenyl)-2-(4-sulfophenyl)-2H-tetrazolium) for 4 h, and the absorbance in each well was determined at 490/630 nm with a PHERA star FS plate reader (BMG Labtech, Ortenberg, Germany). The experiments were conducted in triplicate.

T-47D cells = assay: Cytotoxic activity (MTT assay); type: cell-based, human; conditions: T-47D, MTT, 24 h; read-out: Cytotoxicity, IC50 T-47D
Procedure: as §1

human erythrocytes = assay: Hemolytic activity; type: cell-based; conditions: 1 h incubation at 37 °C, 50% hemolysis
Procedure: Erythrocytes were obtained from human blood (AB(IV) Rh+) by centrifugation with phosphate-buffered saline (PBS) (pH 7.4) at 4 °C for 5 min by 450 g on a LABOFUGE 400R centrifuge (Heraeus, Hanau, Germany) three times. Then, the erythrocytes residue was resuspended in ice cold phosphate saline buffer (pH 7.4) to a final optical density of 1.5 at 700 nm and kept on ice. For the hemolytic assay, 180 µL of erythrocyte suspension was mixed with 20 µL of test compound solution, as well as control, chitonoidoside L [33], in V-bottom 96-well plates. After 1 h of incubation at 37 °C, the plates were exposed to centrifugation for 10 min at 900 g in a laboratory LMC-3000 centrifuge (Biosan, Riga, Latvia). Then, 100 µL of supernatant was carefully decanted and transferred into new flat plates. The values of the lysis of the erythrocytes were found by measuring the concentration of hemoglobin in the supernatant with a Multiskan FC microplate photometer (Thermo Fisher Scientific, Waltham, MA, USA); λ = 570 nm. […] All the experiments were carried out in triple repetitions; p < 0.01.

MDA-MB-231 cells [1] = assay: Cytotoxic activity (MTT assay); type: cell-based, human; conditions: for IC50: MDA-MB-231, MTT, 24 h, read-out: Cytotoxicity, IC50 MDA-MB-231
Procedure: as §1

MDA-MB-231 cells [2] = assay: Wound scratch migration assay; type: cell-based, human; conditions: MDA-MB-231, 0.05 µM, 24 h
Description: To analyze the influence of the tested compounds on tumor cell migration, MDA-MB-231 cells attached to the plate’s plastic bottom were separated by a silicone insert from special migration plates (Culture-insert 2 Well 24, ibiTreat); then, the insert was removed, leaving a gap of 500 ± 50 μm (according to the manufacturer’s data) between the cells. The cells were washed twice by PBS to remove cell debris and floating cells and loaded with a fluorescent probe, a (5,6)-carboxyfluorescein succinimidyl ester (CFDA SE) dye (LumiTrace CFDA SE kit, Lumiprobe, Moscow, Russia). The initial solution of CFDA SE at a concentration of 5 mM in DMSO was dissolved in PBS to prepare a 10 μM solution and was added to the cells for 5 min at 37 °C; then, the cells were washed twice with PBS, and fresh culture medium was added. After that, the cells were treated with various concentrations of glycosides and left for 8 and 24 h. Cells treated with culture medium only were used as control. Cell migration into the wound area was then observed under a fluorescence microscope (MIB-2-FL, LOMO, Saint Peterburg, Russia) with an objective ×10 magnification.

MDA-MB-231 cells [3] = assay: Colony formation (clonogenic) assay; type: cell-based, human; conditions: MDA-MB-231, concentration 0.5 μM
Procedure: The influence of glycosides on the proliferation of MDA-MB-231 cells was analyzed by clonogenic assay. Briefly, MDA-MB-231 cells were cultured on 6-well plates at a density of 1 × 10^3 cells per well in control media (MEM media, 10% FBS, 10,000 U/mL of penicillin and 10,000 μg/mL of streptomycin) or in media supplemented with different concentrations of glycosides. Cells were incubated for one week at 37 °C with 5% CO2 until the cells in the control plates formed colonies that were visible to the eye and were of a substantial size (at least 50 cells per colony). For fixation and staining, the media were removed and the cells were washed twice with PBS. The colonies were fixed with methanol for 25 min, then washed with PBS and stained with 0.5% crystal violet solution for 25 min at room temperature. The plates were then washed with water and air dried.

Structure (SMILES)	IC50 (HEK293 cells)	IC50 (MCF-7 cells)	IC50 (HL-60 cells)	IC50 (T-47D cells)	ED50, Erythrocytes (human erythrocytes)	IC50 (MDA-MB-231 cells [1])	Inhibition of migration in comparison with control (MDA-MB-231 cells [2])	Inhibition of formation and growth of colonies, % of the control (MDA-MB-231 cells [3])	EC50 (MDA-MB-231 cells [1]; MDA-MB-231, 24 h, read-out: Cytotoxic effect EC50 on MDA-MB-231, 24 h)	EC50 (MDA-MB-231 cells [1]; MDA-MB-231, 48 h, read-out: Cytotoxic effect EC50 on MDA-MB-231, 48 h)	EC50 (MDA-MB-231 cells [1]; MDA-MB-231, 72 h, read-out: Cytotoxic effect EC50 on MDA-MB-231, 72 h)
CO[C@@H]1[C@@H](O)[C@H](O[C@@H]2[C@@H](O)[C@H](O[C@H]3[C@H](O)[C@@H](O[C@H]4OC[C@H](O)[C@H](O)[C@@H]4O)[C@H](O[C@H]4[C@H](O[C@H]5CC[C@]6(C)[C@@H]7CC[C@]89C(=O)O[C@@](C)(C[C@@H](O)CC(C)C)[C@H]8[C@@H](OC(C)=O)C[C@@]9(C)C7=CC[C@H]6C5(C)C)OC[C@@H](OS(=O)(=O)O)[C@@H]4O)O[C@@H]3C)OC[C@H]2O)O[C@H](CO)[C@H]1O [frondoside D]	9.45 ± 0.78 µM	23.2 ± 0.92 µM	18.08 ± 0.08 µM	11.8 ± 1.1 µM	9.22 ± 0.10 µM	12 ± 1.28 µM	–	–	–	–	–
COC1C(O)C(CO)OC(OC2C(O)COC(OC3C(C)OC(OC4C(OC5CCC6(C)C7CCC89C(=O)OC(C)(CC(=O)CC(C)C)C8C(OC(C)=O)CC9(C)C7=CCC6C5(C)C)OCC(OS(=O)(=O)[O-])C4O)C(O)C3O)C2O)C1O.[Na+] (centres unmarked) [okhotoside A1-1]	3.17 ± 0.7 µM	8.34 ± 0.12 µM	2.52 ± 0.26 µM	8.46 ± 0.65 µM	0.75 ± 0.09 µM	2.34 ± 0.53 µM	74.76 ± 4.41%	70.76 ± 0.13%	2.34 µM	2.05 µM	1.73 µM
